Reference: patent publication US4876284A, “1-alkyl-2-aminotetralin derivatives” (Per Arvid Emil Carlsson, priority 1981, dated 1989)

How the values were obtained:
[1] = in vivo; cited from earlier work
[2] = tested on: DA autoreceptors; test: Spontaneous locomotor activity in non-pretreated rats; assay type: in vivo, rat; conditions: non-pretreated rats
Experimental: Untreated animals exposed to a new environment display an initial high motor activity which then gradually declines over a period of time. Administration of DA-receptor agonists (e.g. apomorphine) in doses where preferential autoreceptor stimulation is likely to occur, causes a depression of the spontaneous motility mentioned above, considered to be due to the DA autoreceptor-medicated attenuation of central DA transmission.
Rats (150-300 g) were injected subcutaneously with compound 2,5-OH-DPAT or apomorphine and after 5 minutes they were individually placed in motility boxes ("M/P 40 Fc Electronic Motility Meter". Motron Products, Stockholm) and the motor activity (0-30 min) was quantified. […] These findings are in congruence with the results obtained with the selective DA-autoreceptor agonist 3-PPP [S. Hjorth t al., Life Sciences, 28, 1225 (1981)] but in sharp contrast to the results obtained with 5-OH-DPAT and apomorphine (Table III).
Non-pretreated rats were given compound -2 (0.0625-16.0 mg/kg),
5OH--2-(di-n-propylamino) tetralin (5OH--DPAT; 0.0125-0.05 mg/kg,
apomorphine (0.1-1.0 mg/kg) or saline subcutaneously. Five minutes later
they were placed individually into motility meters and the locomotor

[3] = tested on: central DA-receptor (pre- and/or postsynaptic); conditions: reserpine-pretreated rats, s.c., cited from earlier work
[4] = tested on: autoreceptor; conditions: low doses; cited from earlier work
[5] = tested on: postsynaptic DA receptors; test: Antagonism of the reserpine plus α-methyl-para-tyrosine-induced immobility (neuroleptic syndrome) in rats; motor activity

Row | SMILES | actions stated in CA 79: 146294b [1] | Locomotor activity ([2]; 0.1 mg/kg s.c.) | Locomotor activity ([2]; 1.0 mg/kg s.c.) | effect on locomotor activity, in words ([2]; s.c.) | Dopa-accumulation; ED50, Limbic (taken from Hacksell et al., J. Med. Chem. 22, 1469 (1979)) ([3]; limbic forebrain) | Dopa-accumulation; ED50, Striatum (taken from Hacksell et al., J. Med. Chem. 22, 1469 (1979)) ([3]; striatum) | effects demonstrated in man [4] | Motor activity ([5]; 1 mg/kg s.c., reserpine 10 mg/kg + α-methyl-para-tyrosine 250 mg/kg i.p., means ± s.e.m.) | motor response / postsynaptic DA-receptor stimulatory effects ([5]; comparative study, Table II, s.c.) | antagonism of the reserpine-induced syndrome / behaviour elicited ([5]; reserpine and α-methyl-para-tyrosine pretreated rats)
1 | CN(C)C1CCc2ccc(O)cc2C1(C)C (stereo not shown) [1,1-Dimethyl-2-(N,N-dimethylamino)-7-hydroxytetralin] | analgesic and intestinal movement accelerating actions |  |  |  |  |  |  |  |  | 
2 | CN1CCc2cccc3c2[C@H]1Cc1ccc(O)c(O)c1-3 [Apomorphine] |  | 134 ± 9 counts 0.30 min | 439 ± 67 counts 0.30 min | lower doses significantly suppressing and higher dosess significantly stimulating the rat locomotor activity | 0.19 μmol/kg s.c. | 0.22 μmol/kg s.c. | "paradoxical" antipsychotic and antidyskinetic effects | 517 ± 56 counts 0-60 min | strong central postsynaptic DA-receptor stimulatory effects | pronounced stereotyped and hyperactive behaviour
